{
  "source": "patent US7501538B2",
  "about": "“Aryl and heteroaryl compounds, compositions and methods of use” (TransTech Pharma, Inc., priority 2003, dated 2009)",
  "key": {"UT-7 cells (UT7/EPO)": {"test_system": "UT-7 cells (UT7/EPO)", "assay": "Cell Proliferation Assay (AlamarBlue), UT-7", "format": "cell-based", "settings": "UT-7 assay, at or below 1000 micromolar compound concentration", "method": "UT-7 and FDC-P1 cell proliferation was assessed by AlamarBlue (BioSource International Inc., Camarillo, Calif. 93012, USA). Briefly, the cells were plated into 96-well Costar cell culture plate (Corning Incorporated, Corning, N.Y. 14831, USA) at 7000 cells/well and 4000 cells/well for UT7/EPO and FDC-P1 cell line, respectively. The test compound and/or vehicle was added to each well with a final concentration of 1% DMSO and incubated in an atmosphere of 5% CO2 at 37° C. for 66 hours. After a further 6 hour incubation in the presence of AlamarBlue, fluorescent intensity was measured using a SpectraMax Gemini (Molecular Devices, Sunnyvale, Calif. 94089, USA) plate reader, with excitation at 530 nm and emission at 590 nm. The Percent Increase=((RFU Test-RFU Medium)/(RFU Vehicle-RFU Medium)-1)*100. Recombinant human EPO (Research Diagnostics, Inc., Flanders, N.J. 07836, USA) was used in the assay as a positive control."}, "receptors for EPO": {"biological_target": "receptors for EPO", "settings": "cited from earlier work"}},
  "note": "Where two headings read alike, the source gives them in different places.",
  "data": [
    {"compound": "CC(C)(C)c1ccc(COc2ccc(C[C@H](NC(=O)c3cc(Cl)ccc3NCc3cccc4ccccc34)C(=O)O)cc2)cc1", "note": "[Example 4, (2S)-3-[4-(4-tert-butyl-benzyloxy)-phenyl]-2-{5-chloro-2-[(naphthalen-1-ylmethyl)-amino]-benzoylamino}-propionic acid]", "values": [
      {"measurement": "cell proliferation (Percent Increase)", "setting": "UT-7 cells (UT7/EPO)", "value": "< 20", "unit": "%"}
    ]},
    {"compound": "EPO: 165 amino acid, 34 kilodalton (kDa) glycoprotein hormone regulating red blood cell production", "values": [
      {"measurement": "Kd", "setting": "receptors for EPO; high affinity receptor, read-out: Kd, high affinity receptors for EPO", "value": "0.075 to 0.1", "unit": "nM"},
      {"measurement": "Kd", "setting": "receptors for EPO; low affinity receptor, read-out: Kd, low affinity receptors for EPO", "value": "0.22 to 0.8", "unit": "nM"}
    ]}
  ]
}
